Data reported in ChEMBL document CHEMBL1759953, “Antitumor agents 287. Substituted 4-amino-2H-pyran-2-one (APO) analogs reveal a new scaffold from neo-tanshinlactone with in vitro anticancer activity” (2011).

How the values were obtained:
Type in all cases: functional
KB = assay: Cytotoxicity against human KB cells after 72 hrs by MTT assay; details: read-out: ED50 (the source's name)
A549 = assay: Cytotoxicity against human A549 cells after 72 hrs by MTT assay; details: A549, 72 h, read-out: ED50 (the source's name)
[1] = Cytotoxicity against human KBVIN cells after 72 hrs by MTT assay; details: read-out: ED50 (the source's name)
DU-145 = assay: Cytotoxicity against human DU145 cells after 72 hrs by MTT assay; details: DU-145, 72 h, read-out: ED50 (the source's name)
SK-BR-3 = assay: Cytotoxicity against human SKBR3 cells after 72 hrs by MTT assay; details: SK-BR-3, 72 h, read-out: ED50 (the source's name)

SMILES | EC50 (KB) [nM] | EC50 (A549) [nM] | EC50 [1] [nM] | EC50 (DU-145) [nM] | EC50 (SK-BR-3) [nM]
COc1ccc(Nc2cc(/C=C/c3ccccc3)oc(=O)c2)cc1 | 150 | 110 | 100 | 110 | 83
O=c1cc(N2CCCCC2)cc(-c2ccccc2)o1 | > 30000 | > 30000 | > 30000 | > 30000 | > 30000
COc1ccc(Nc2cc(C)oc(=O)c2)cc1 | > 30000 | > 30000 | > 30000 | > 30000 | > 30000
O=c1cc(Nc2ccccc2)cc(-c2ccccc2)o1 | 130 | 120 | 150 | 98 | 130
O=c1cc(NC2CCCCC2)cc(/C=C/c2ccccc2)o1 | 2020 | 1250 | 1240 | 1230 | 1530
Cc1ccc(Nc2cc(-c3ccccc3)oc(=O)c2)cc1 | 64 | 67 | 59 | 73 | 90
O=c1cc(Nc2ccc(Br)cc2)cc(-c2ccccc2)o1 | 320 | 310 | 240 | 340 | 400
O=c1cc(NC2CC2)cc(-c2ccccc2)o1 | > 30000 | > 30000 | > 30000 | > 30000 | > 30000
COc1cccc(Nc2cc(-c3ccccc3)oc(=O)c2)c1 | 490 | 630 | 550 | 660 | 740
COc1ccc(Nc2cc(C3CCCCC3)oc(=O)c2)cc1 | 8320 | 4620 | 4390 | 8610 | 5290
O=c1cc(NC2CCCCC2)cc(-c2ccccc2)o1 | 16000 | 9690 | 9150 | 7470 | 10900
COc1ccccc1Nc1cc(-c2ccccc2)oc(=O)c1 | 350 | – | 490 | 370 | 540
COc1ccc(Nc2cc(-c3ccccc3)oc(=O)c2)cc1 | 160 | 93 | 98 | 120 | 79
COc1ccc(Nc2cc(C(C)C)oc(=O)c2)cc1 | > 30000 | > 30000 | > 30000 | > 30000 | > 30000
COc1ccc(Nc2cc(-c3ccco3)oc(=O)c2)cc1 | 2660 | 1910 | 1460 | 1950 | 1760
Nc1cc(=O)oc2c1ccc1ccccc12 | 170 | 110 | 130 | 110 | 130
COc1ccc(Nc2cc(C3CCCC3)oc(=O)c2)cc1 | 8380 | 5420 | 4980 | 5420 | 4730
CCCCCc1cc(Nc2ccc(OC)cc2)cc(=O)o1 | 10100 | 4420 | 4840 | 5940 | 4930
COc1ccc(Nc2cc(Cc3ccccc3)oc(=O)c2)cc1 | – | 1620 | 1300 | 1600 | 1340
COc1ccc(Nc2cc(-c3ccc4ccccc4c3)oc(=O)c2)cc1 | 180 | 150 | 130 | 150 | 130
